Legend:
Format in all cases: physicochemical
[1] = Crystal form stability during wet-milling (XRPD); settings: 5% in 5% F127/DPBS, wet-milled 2 days
Experimental: In accordance to Example 3, mucus-penetrating particles comprising of Crystalline Form B was prepared by wet-milling neat Crystalline Form B. A slurry containing 5% neat crystalline From B of Compound 3 and 5% F127 in DPBS (Dulbecco's Phosphate Buffered Saline) was added to an equal bulk volume of 1-mm ceria-stabilized zirconium oxide beads in a glass vial (e.g. 0.5 mL of slurry for 0.5 mL of beads). A magnetic stir bar was used to agitate the beads, stirring at approximately 500 rpm. The sample was milled for 2 days. Nanoparticles which were approximately 200 nm in diameter (z-averaged), as measured by DLS, were generated.

[2] = Competition between crystalline Forms A and B in mixed nanoparticle suspensions (XRPD); settings: competition with crystalline Form A
Experimental: A suspension of nanoparticles of crystalline Form A was generated as described via wet milling the amorphous material. A suspension of nanoparticles of Form B was generated via wet milling of neat Form B crystals as described. The two suspensions were mixed in 1:1 ratio and incubated at room temperature. After 11 days, an XRPD analysis was performed, which estimated that the ratio of Forms A and B was unchanged in the mixture (not shown). A fraction of the mixture was then stirred using a magnetic stir bar to provide an increased energy input in order to accelerate the outcome of the competition experiment.

[3] = Stability of MPP suspensions of crystalline forms on storage (XRPD profile)
Experimental: To characterize the stability of the resulting crystalline forms of Compound 3, changes in XRPD profiles following long-term storage were determined. An MPP suspension comprising of crystalline Form A was stored at room temperature for 7 weeks, while a second MPP suspension also comprising of crystalline Form A was stored at room temperature for 7 weeks followed by an additional 1.5 weeks of agitation. […] To further test the potential for longer term storage, two additional MPP samples comprising of Form A, which were formulated at pH 5.8 and pH 7.4 by incorporating different buffers in the milling slurry, were stored at room temperature for 8 months and then analyzed by XRPD.
To confirm long-term stability, an MPP suspension of crystalline Form B was stored for 7 weeks at room temperature and then was characterized by XRPD. The results of that analysis are shown in FIG. 5, which provides the XRPD pattern of the original crystalline Form B material in the bottom trace and the XRPD pattern of the material after seven weeks of storage in the top trace.

| Structure (SMILES) | crystal form stability during milling (XRPD) [1] | relative stability under the current formulation conditions [2] | physical stability during storage (XRPD pattern) ([3]; MPP suspension stored 7 weeks at room temperature) | shelf stable as suspensions (XRPD profile of crystalline Form A retained) ([3]; MPP samples formulated at pH 5.8 and pH 7.4, room temperature) | shelf stable in solution (XRPD profile of crystalline Form A retained) ([3]; MPP suspension, room temperature, second sample with additional 1.5 weeks of agitation) |
| --- | --- | --- | --- | --- | --- |
| COc1cc2c(Oc3ccc4[nH]c(C)cc4c3F)ncnc2cc1OCCCN1CCC2(CC1)COC2 [crystalline Form B, 7-(3-(4-(4-fluoro-2-methyl-1H-indol-5-yloxy)-6-methoxyquinazolin-7-yloxy)propyl)-2-oxa-7-azaspiro[3.5]nonane] | remained stable during milling | more stable | physically stable during storage | – | – |
| COc1cc2c(Oc3ccc4[nH]c(C)cc4c3F)ncnc2cc1OCCCN1CCC2(CC1)COC2 [crystalline Form A, 7-(3-(4-(4-fluoro-2-methyl-1H-indol-5-yloxy)-6-methoxyquinazolin-7-yloxy)propyl)-2-oxa-7-azaspiro[3.5] nonane] | – | – | – | at least 8 months | at least 7 weeks |

From patent US11713323B2, “Crystalline forms of therapeutic compounds and uses thereof” (Kala Pharmaceuticals, Inc., priority 2013, dated 2023)
